Tested on: SKW-3-ET650-4 cells
Assay: CD69 upregulation, SKW-3-ET650-4 cells
Format: cell-based, human
Conditions: ET650-4-HIP Exp5
Description: For TCR transduced SKW-3 T cell lines (SKW-3-TCR), response to antigen was determined using flow cytometry to assess the level of upregulation of the T cell activation marker CD69. One hundred thousand BLCL 9031 cells (HLA-DQ8 + : HLA-DQA*03:01:01, HLA-DQB1*03:02) as APCs were incubated at 37 °C, 5% CO2 for 24 h with increasing concentrations of synthesised HIP ([…]; GLBiochem) or native C-peptide ([…]; GLBiochem) or 50 μg DQ8-glia-α1 (control) in 96 well round-bottomed plates. To confirm HLA-DQ8-restriction, 2 μg/ml (SKW-3-ET672-1) or 50 μg/ml (all other SKW-3-TCR cell lines) C-peptide or HIP pulsed BLCL 9031 cells were blocked with a final concentration of 20 μg/ml anti-HLA-DQ monoclonal antibody (clone SPV-L3) for 3 h before stimulation (i.e. before the addition of SKW-3-TCR cell lines). T-cell activation assay were performed by mixing 1 × 10^5 SKW-3-TCR cells, SKW-3 parental cells (control) or SP3.4 (HLA-DQ8-glia-α1 restricted T cell line; control) cells with the peptide-pulsed BLCL 9031 cells or with 5 μl anti-CD3/CD28 dynabeads (Thermo Fisher Scientific) (control) at 37 °C, 5% CO2 for 20 h before antibody staining. The activated induced SKW-3-TCR T cells were washed twice with FACS buffer (Phosphate buffered saline, 10% Fetal Calf Serum (FCS; Merck)) (350 g, 5 min), and stained a mixture of 1:100 diluted V450 mouse anti-human CD3 (clone UCHT1, BD Biosciences) and APC Mouse Anti-Human CD69 (Clone FN50, BD Biosciences) for 1 h on ice in the dark. The samples were washed twice with PBS buffer (350 g, 5 min) to remove excess antibodies. Afterward, the samples were stained for live/dead cells with Zombie NIR (Biolegend) for 30 min at RT in the dark before being washed 6 times with FACS buffer (350 g, 5 min). Before data acquisition, the samples were resuspended in 100 μl of FACS buffer and analysed via flow cytometry (LSR II; BD Biosciences; BD FACSDiva-8.0.1 software). Collected data were analysed using Flowjo v10.6.0 (FlowJo), and then Prism 9 (GraphPad Software). […] Using these settings, the median fluorescence intensity (MFI) corresponding to the relative level of CD69 expressed on the SKW-3-TCR.TCR cell lines was determined using Flowjo v10.6.0 software. The MFI of CD69 were analysed by using Prism 9 (GraphPad Software). Three to six independent experiments were conducted, and all sample were performed in duplicates. Statistical significance was determined using P-values generated by t-test or one-way ANOVA multiple comparison of the MFI of no-peptide-stimulated SKW-3-TCR T cells versa the MFI of peptide-stimulated SKW-3-TCR T cells.
Supplementary Figure 1. Antigen reactivity of T cells transduced with TCRs isolated from T1D patient clones and recent onset T1D patient PBMCs. a, b Expression of CD69 on the surface of TCR transduced SKW3 cell lines stimulated overnight with C-peptide-p ulsed BLCL 9031 (top panel), or HIP-p ulsed BLCL 9031 (bottom panel). The SKW3 cell lines transduced with a TCRs isolated from primary T1D T clones and b TCRs isolated from recent onset T1D patient PBMCs (TCR name indicated above the graphs), were cultured with BLCL 9031 (no peptide) or with serial diluted concentration of peptide as indicated (grey), or 50 µg/ml C-peptide/HIP-pulsed BLCL 9031 blocked by anti-H LA-D Q mAb (clone SPV-L3; 20 µg/ml) (black), or 50 µg/ml glia-α1-p ulsed BLCL 9031 (purple; control), or 50 µg/ml C-peptide/HIP peptide only (cyan; control), or T cell lines alone (pink; control). Due to the strong reactivity of the SKW-T CR E672-1 cell line to HIP, only 2 µg of HIP was used in anti-HLA-D Q mAb blocking experiments. All samples were performed in duplicates and the black dots are presented as the mean fluorescence intensity (MFI) of average of duplicated values from three to six (n=3, n=4, n=5 or n=6) independent experiments. […]
expression. The fold increase in MFI CD69 expression was calculated by dividing the average MFI CD69 from each sample by the average MFI CD69 from BLCL 9031 (no […]
peptide). […]

## GQVELGGGNAVEVLK [HIP]
0.016 ug, replicate 1
  Geometric Mean CD69: 2163
  Median CD69: 2198
0.016 ug, replicate 2
  Geometric Mean CD69: 2237
  Median CD69: 2272
0.08 ug, replicate 1
  Geometric Mean CD69: 3079
  Median CD69: 3230
0.08 ug, replicate 2
  Geometric Mean CD69: 3033
  Median CD69: 3141
0.4 ug, replicate 1
  Geometric Mean CD69: 4146
  Median CD69: 4387
0.4 ug, replicate 2
  Geometric Mean CD69: 4264
  Median CD69: 4474
2 ug, replicate 1
  Geometric Mean CD69: 5623
  Median CD69: 5949
2 ug, replicate 2
  Geometric Mean CD69: 5894
  Median CD69: 6259
10 ug, replicate 1
  Geometric Mean CD69: 6976
  Median CD69: 7425
10 ug, replicate 2
  Geometric Mean CD69: 7158
  Median CD69: 7606
50 ug, replicate 1
  Geometric Mean CD69: 7325
  Median CD69: 7686
50 ug, replicate 2
  Geometric Mean CD69: 7770
  Median CD69: 8209
T cell +pep, replicate 1
  Geometric Mean CD69: 892
  Median CD69: 814
T cell +pep, replicate 2
  Geometric Mean CD69: 922
  Median CD69: 842
block, 50 ug, replicate 1
  Geometric Mean CD69: 2745
  Median CD69: 2871
block, 50 ug, replicate 2
  Geometric Mean CD69: 2797
  Median CD69: 2933

— paper PMC8387461, “T cell receptor recognition of hybrid insulin peptides bound to HLA-DQ8” (Nature Communications, 2021)
